We go through seven compounds from US20060229335A1, “Diarylamine and arylheteroarylamine pyrazole derivatives as modulators of 5ht2a” (priority 2002, published 2006).

This test has as its target non-endogenous, constitutively activated version of the human 5-HT2A receptor (human CART 5-HT2A) (Homo sapiens, UniProt P28223). As to the kind of experiment: Intracellular IP3 (inositol phosphate) accumulation assay, inverse agonist potency. It counts as cell-based. Conditions: HEK293 cells transfected with mutated constitutively active 5-HT2A, averages of at least two trials, read-out: 5-HT2A (IC50) IP Accumulation Assay. From the text:
It is well established that human 5-HT2A receptors coupled to the guanine nucleotide binding protein Gq. 5-HT2A-mediated activation of Gq results in activation of membrane associated phospholipase C which in turn catalyzes the hydrolysis of phosphatidylinositol species (PI, PIP, and PIP2) to form inositol phosphate species (IP, IP2, and IP3). The accumulation of inositol phosphate species can be measured and is often used to determine the functional potency of 5-HT2A agonists or antagonists. However, to evaluate compounds for potential inverse agonist activity, the 5-HT2A receptor must display constitutive activity. We have mutated the human 5-HT2A receptor so as to generate a non-endogenous, constitutively activated version of the 5-HT2A receptor, as disclosed in SEQ ID NO:30 (polynucleotide) and SEQ ID NO:31 (polypeptide) in U.S. Pat. No. 6,541,209 (the disclosure of which is hereby incorporated by reference in its entirety). Upon transfection of this mutated 5-HT2A into HEK293 cells, it was observed that there was a ligand-independent increase in basal inositol phosphate accumulation compared to untransfected cells. This ligand-independent insoitol phosphate accumulation is a trademark of constitutive activity. The following protocol was used to assess inverse agonist potency of compounds.
On day one, 13×10^6 HEK293 cells per 150 mm plate were plated out. On day two, 2 ml of serum OptimemI is added per plate followed by addition of 60 ul of lipofectamine and 16ug of cDNA. Note that lipofectamine must be added to the OptimemI and mixed well before addition of cDNA. While complexes between lipofectamine and the cDNA are forming, media is carefully aspirated and cells are gently rinsed with 5 ml of OptimemI media followed by careful aspiration. Then 12 ml of OptimemI is added to each plate and 2 ml of transfection solution is added followed by a 5 hour incubation at 37° C. in a 5% CO2 incubator. Plates are then carefully aspirated and 25 ml of Complete Media are added to each plate and cells are then incubated until used. On day 3, cells are trypsinized with 5 ml of 0.05% trypsin for 20-30 seconds followed by addition of 10 ml of warmed media, gently titurated to dissociate cells, and then 13 additional ml of warmed media is gently added. Cells are then counted and then 55,000 cells are added to 96-well sterile poly-D-lysine coated plates. Cells are allowed to attach over a six hour incubation at 37° C. in a 5% CO2 incubator. Media is then carefuilly aspirated and 100 ul of warm inositol-free media plus 0.5 μCi ^3H-inositol is added to each well and the plates are incubated for 18-20 hours at 37° C. in a 5% CO2 incubator.
On day 4, media is carefully aspirated and then 0.1 ml of assay medium is added containing inositol-free/serum free media, 10 μM pargyline, 10 mM lithium chloride, and test compound at indicated concentrations. The plates were then incubated for three hours at 37° C. and then wells are carefully aspirated. Then 200 ul of ice-cold 0.1M formic acid is added to each well. Plates can then be frozen at this point at −80° C. until further processed. Frozen plates are then thawed over the course of one hour, and the contents of the wells (approximately 220 ul) are placed over 400 ul of washed ion-exchange resin (AG 1-X8) contained in a Multi Screen Filtration plate and incubated for 10 minutes followed by filtration under vacuum pressure. Resin is then washed nine times with 200 ul of water and then [^3H]inositol phosphates are eluted into a collecting plate by the addition of 200 ul of 1M ammonium formate and an additional 5 minute incubation. The elutant is then transferred to 20 ml scintillation vials, 8 ml of SuperMix or Hi-Safe scintillation cocktails is added, and vials are counted for 0.5-1 minutes in a Wallac 1414 scintilation counter.
At each concentration, triplicate determinations were made. […]
As for `Cn1ncc(Cl)c1-c1cccc(Nc2ccc(OC(F)(F)F)cc2)c1` [Compound 8, [3-(4-Chloro-2-methyl-2H-pyrazol-3-yl)-phenyl]-(4-trifluoromethoxy-phenyl)-amine], the half-inhibitory concentration (IC50) came to 44.6 nM. To `Cn1ncc(Br)c1-c1cccc(Nc2ccc(Cl)cc2)c1` [Compound 36, [3-(4-Bromo-2-methyl-2H-pyrazo1-3-yl)-phenyl]-(4-chloro-phenyl)-amine] belongs 7 nM.

On to `Cn1ncc(Br)c1-c1cccc(Nc2ccc(C(F)(F)F)cc2)c1` [Compound 44, [3-(4-Bromo-2-methyl-2H-pyrazol-3-yl)-phenyl]-(4-trifluoromethyl-phenyl)-amine], for which the IC50 is 2.99 nM. To `Cn1ncc(Br)c1-c1cccc(Nc2ccc(S(C)(=O)=O)cc2)c1` [Compound 46, [3-(4-Bromo-2-methyl-2H-pyrazol-3-yl)-phenyl]-(4-methanesulfonyl-phenyl)-amine] belongs 113 nM; to `Cc1cc(Nc2cccc(-c3c(Br)cnn3C)c2)ccc1Cl` [Compound 49, [3-(4-Bromo-2-methyl-2H-pyrazol-3-yl)-phenyl]-(3-methyl-4-chloro-phenyl)-amine], 19 nM.

Take `Cn1ncc(Br)c1-c1cccc(Nc2nc3ccccc3o2)c1` [Compound 57, Benzoxazol-2-yl-[3-(4-bromo-2-methyl-2H-pyrazol-3-yl)-phenyl]-amine]: the IC50 stood at 10.6 nM. The value for `COc1ccc(Nc2ccc(Cl)cc2)cc1-c1c(Br)cnn1C` [Compound 70, [3-(4-Bromo-2-methyl-2H-pyrazol-3-yl)-4-methoxy-phenyl)-(4-chloro-phenyl)-amine] was 1.77 nM.
